For nine molecules, Ki results are on record in patent US9045389B2, “Biphenyl derivatives useful as glucagon receptor antagonists” (Janssen Pharmaceutica NV, priority 2011, dated 2015).

Sequence of human GCGR (P47871 26-477): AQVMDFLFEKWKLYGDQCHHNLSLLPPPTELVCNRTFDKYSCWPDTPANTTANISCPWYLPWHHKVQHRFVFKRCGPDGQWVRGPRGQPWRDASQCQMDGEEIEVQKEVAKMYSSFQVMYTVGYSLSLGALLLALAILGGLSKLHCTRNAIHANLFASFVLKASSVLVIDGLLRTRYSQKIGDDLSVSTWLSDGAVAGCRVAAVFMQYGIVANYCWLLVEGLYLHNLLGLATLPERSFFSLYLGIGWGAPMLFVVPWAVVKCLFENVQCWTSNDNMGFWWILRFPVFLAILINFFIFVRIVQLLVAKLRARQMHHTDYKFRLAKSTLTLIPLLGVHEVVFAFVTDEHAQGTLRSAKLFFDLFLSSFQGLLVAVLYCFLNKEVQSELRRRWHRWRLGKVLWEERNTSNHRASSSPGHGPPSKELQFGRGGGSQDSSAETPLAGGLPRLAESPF

In the assay the target is human GCGR (Homo sapiens (Human), UniProt P47871). As to the kind of experiment: Cellular functional assay, cAMP readout: glucagon stimulated cAMP in HEK293 cells expressing human GCGR (LANCE TR-FRET). The assay is classed as cell-based. Here is the method:
IC50 Values in Cellular Functional Assays: cAMP Readout
Full-length human GCGR (Accession Number: NM000160) subcloned into pcDNA3.1 was stably transfected into HEK293 cells (hGluc-1 HEK) and maintained under G418 selection (500 μg/mL). Cell cultures were maintained in DMEM/F12 media supplemented with 10% FBS and 1% GlutaMax. Glucagon stimulated cAMP was quantified using LANCE technology as per manufacturer instructions. On the day of the experiment, spent media was removed and cells were washed with Hank's Buffered Saline solution (HBSS) and cells were harvested with non-enzymatic cell dissociation solution, then washed once with HBSS. Cells were re-suspended in stimulation buffer at a concentration of 0.83×10^6 cells/ml and cAMP detection antibody was added. 6 μl/well of this solution was then dispensed in a 384 well plate (cell density 5000 cells/well). Test compound was serially diluted in DMSO and 50 nl were dispensed on top of the cell solution and allowed to incubate for 30 minutes. 6 μl of a 2× glucagon solution (final concentration in assay 100 pM) was then added and the reaction was terminated after 5 minutes with the addition of detection mix. The resulting mixture was incubated, protected from light for 1.5 h. cAMP levels were quantified by TR-FRET in an EnVision instrument against a known standard. IC50's were generated by using a non-linear regression macro driven in Excel and converted to Ki values.
(In general: In TR-FRET formats the signal depends on donor and acceptor labels being close together.)
`Cc1cc(Cl)ccc1-c1ccc(NCc2ccc(C(F)(F)F)cc2-c2ccc(C(=O)NCCC(=O)O)cc2C)cc1Cl` [Compound 5, 3-(2′-(((2,4′-dichloro-2′-methyl-[1,1′-biphenyl]-4-yl)amino)methyl)-2-methyl-5′-(trifluoromethyl)-[1,1′-biphenyl]-4-ylcarboxamido)propanoic acid] gave a Ki of 89 nM.

In turn, `O=C(O)CCNC(=O)c1ccc(-c2cc(C(F)(F)F)ccc2CNc2ccc(-c3ccc(Cl)cc3Cl)cc2)cc1` [Compound 4, 3-(2′-(((2′,4′-dichloro-[1,1′-biphenyl]-4-yl)amino)methyl)-5′-(trifluoromethyl)-[1,1′-biphenyl]-4-ylcarboxamido)propanoic acid] came in with a Ki of 150 nM.

With `O=C(O)CCNC(=O)c1ccc(-c2cc(C(F)(F)F)ccc2CNc2ccc(-c3ccc(C(F)(F)F)cc3Cl)c(Cl)c2)cc1` [Compound 3, 3-(2′-(((2,2′-dichloro-4′-(trifluoromethyl)-[1,1′-biphenyl]-4-yl)amino)methyl)-5′-(trifluoromethyl)-[1,1′-biphenyl]-4-ylcarboxamido)propanoic acid], the Ki amounted to 67 nM.

The molecule `COc1cc(C(F)(F)F)cc(-c2ccc(C(=O)NCCC(=O)O)cc2)c1CNc1ccc(-c2ccc(Cl)cc2)c(Cl)c1` [Compound 15, 3-(2′-(((2,4′-dichloro-[1,1′-biphenyl]-4-yl)amino)methyl)-3′-methoxy-5′-(trifluoromethyl)-[1,1′-biphenyl]-4-ylcarboxamido)propanoic acid] gave a Ki of 57 nM.

Take `Cc1cc(C(F)(F)F)ccc1-c1ccc(NCc2c(-c3ccc(C(=O)NCCC(=O)O)cc3)cc(C(F)(F)F)cc2C(C)C)cc1Cl` [Compound 17, 3-(2′-(((2-chloro-2′-methyl-4′-(trifluoromethyl)-[1,1′-biphenyl]-4-yl)amino)methyl)-3′-isopropyl-5′-(trifluoromethyl)-[1,1′-biphenyl]-4-ylcarboxamido)propanoic acid]: the inhibition constant (Ki) is 30 nM.

In turn, `Cc1cc(Cl)ccc1-c1ccc(NCc2ccc(C(F)(F)F)cc2-c2ccc(C(=O)NCCC(=O)O)cc2)cc1Cl` [Compound 1, 3-(2′-(((2,4′-dichloro-2′-methyl-[1,1′-biphenyl]-4-yl)amino)methyl)-5′-(trifluoromethyl)-[1,1′-biphenyl]-4-ylcarboxamido)propanoic acid] gave a Ki of 57 nM.

On to `Cc1cc(C(F)(F)F)ccc1-c1ccc(NCc2ccc(C(F)(F)F)cc2-c2ccc(C(=O)NCCC(=O)O)cc2C)cc1Cl` [Compound 6, 3-(2′-(((2-chloro-2′-methyl-4′-(trifluoromethyl)-[1,1′-biphenyl]-4-yl)amino)methyl)-2-methyl-5′-(trifluoromethyl)-[1,1′-biphenyl]-4-ylcarboxamido)propanoic acid], for which the Ki is 70 nM.

As to `COc1cc(C(F)(F)F)cc(-c2ccc(C(=O)NCCC(=O)O)cc2)c1CNc1ccc(-c2ccc(C(F)(F)F)cc2Cl)cc1` [Compound 16, 3-(2′-(((2′-chloro-4′-(trifluoromethyl)-[1,1′-biphenyl]-4-yl)amino)methyl)-3′-methoxy-5′-(trifluoromethyl)-[1,1′-biphenyl]-4-ylcarboxamido)propanoic acid], the Ki stood at 47 nM.

Molecule `Cc1cc(C(F)(F)F)ccc1-c1ccc(NCc2ccc(C(F)(F)F)cc2-c2ccc(C(=O)NCCC(=O)O)cc2)cc1Cl` [Compound 2, 3-(2′-(((2-chloro-2′-methyl-4′-(trifluoromethyl)-[1,1′-biphenyl]-4-yl)amino)methyl)-5′-(trifluoromethyl)-[1,1′-biphenyl]-4-ylcarboxamido)propanoic acid] yielded a Ki of 42 nM.

What is called Ki is the dissociation constant of the complex between target and ligand, obtained from inhibition or displacement. A higher Ki goes with a looser hold on the target.
